Read-outs that look alike come from different tables or passages of the source.
How the values were obtained:
[1] = test system: American Trypanosoma cruzi blood trypomastigotes; details: in words; cited from earlier work
[2] = test system: Plasmodium falciparum (strain K1, IEF stage); format: cell-based; details: L6 IC50 versus P. falciparum IC50
[3] = test system: Trypanosoma brucei rhodesiense (strain STIB 900, trypomastigote stage); test: Growth inhibition of T. b. rhodesiense STIB900 trypomastigote forms; format: cell-based
[4] = test system: Leishmania donovani; details: cited from earlier work

Question: For `COc1cc(/C=C/c2ccc(OC)c(OC)c2)oc(=O)c1` [compound 3, 6-[2-(3,4-Dimethoxyphenyl)ethenyl]-4-methoxy-2H-pyran-2-one], which “activity against T. cruzi blood trypomastigotes” value [1] is on record?
Answer: Its value is “weak activity”.

Question: Which “SI Pf. (selectivity index for Plasmodium falciparum against L6)” value [2] does the source give for `COC1=CC(=O)O[C@]2(/C=C/c3ccc(C(C)(C)C)cc3)[C@H]1[C@H](c1ccc(C(C)(C)C)cc1)[C@H]2c1cc(OC)cc(=O)o1` (racemic) [compound 33, 12,12′-Di-tert-butyl-aniba-dimer-A] here?
Answer: The value was about 80.

Question: Which results are given for `Nc1nc(N)nc(Nc2ccc([As]3SCC(CO)S3)cc2)n1` (centres unmarked) [melarsoprol]?
Answer: IC50 ([3]; RHODESIENSE|STIB900): 4 ng/mL; IC50 ([3]; RHODESIENSE|STIB900, read-out: T.b.rhod. IC50): 10 nM

Question: With `CCCCCCc1c(OC)cc(CCCCC)oc1=O` [compound 10] as the molecule, how does the IC50 [4] read?
Answer: The IC50 was “similarly active”.
